# Assay results taken from patent publication US10092546B2, “Imidazole derivatives” (Hoffman-La Roche Inc., priority 2015, dated 2018).
# Molecular target: T1, human EAAT3 (Homo sapiens, UniProt P43005)
# T1 construct: expressed in transfected cells
# T1 sequence (P43005 1-524): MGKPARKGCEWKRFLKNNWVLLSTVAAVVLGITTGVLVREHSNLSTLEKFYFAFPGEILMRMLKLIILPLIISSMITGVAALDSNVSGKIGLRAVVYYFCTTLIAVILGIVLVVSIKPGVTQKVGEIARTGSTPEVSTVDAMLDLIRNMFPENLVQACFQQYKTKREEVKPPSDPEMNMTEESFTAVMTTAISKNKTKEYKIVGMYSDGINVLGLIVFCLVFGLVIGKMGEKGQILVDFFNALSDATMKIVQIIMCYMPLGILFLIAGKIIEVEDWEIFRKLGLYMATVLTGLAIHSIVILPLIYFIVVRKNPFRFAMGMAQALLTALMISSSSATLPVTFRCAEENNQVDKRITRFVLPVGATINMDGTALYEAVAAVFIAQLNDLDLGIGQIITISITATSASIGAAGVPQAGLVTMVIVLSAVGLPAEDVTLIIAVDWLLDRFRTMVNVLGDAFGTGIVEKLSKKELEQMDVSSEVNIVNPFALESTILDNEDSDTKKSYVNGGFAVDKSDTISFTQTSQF
# Assay: FLIPR Membrane Potential (FMP) assay, antagonist potency at human EAAT3
# Type: cell-based
# Details: HEK-293 cells stably expressing human EAAT3; L-glutamate as agonist at EC80; antagonist applied 15 min before; Kb by Cheng-Prusoff from IC50
# Protocol: The FLIPR Membrane Potential (FMP) Assay
# HEK-293 cells stably expressing human EAAT3 were seeded at 55 000 cells/well in growth medium (DMEM glutamate free (Invitrogen 11960-044), 1% Pen Strep (10 ml/l GIBCO BRL No 15140-023), 10% FCS non dialysed heat inactivated, 5 mg/l puromycin) in poly-D-lysine treated 96-well black microtiter plates with clear-bottom. After 24 h, the growth medium was removed and 100 μl/well of Krebs buffer (140 mM NaCl, 4.7 mM KCl, 2.5 mM CaCl2, 1.2 mM MgCl2, 11 mM HEPES, 10 mM D-glucose, pH=7.4) added. The cells were then loaded by adding 100 μl/well FMP assay dye (FLIPR Membrane Potential assay reagent, Molecular Devices). The 96-well plates were then incubated at 37° C. for 1 h. The depolarization of the cells will cause more dye to enter in the cells, where it will bind to intracellular proteins and lipids and cause an increase in the fluorescence signal. Antagonist potency at human EAAT3 was determined by using L-glutamate as agonist at a concentration which gives 80% of the maximum response. The antagonists were applied 15 min before the application of the agonist L-glutamate. The assays were performed at room temperature and measurements done by using a Fluorometric Imaging Plate Reader (FLIPR, Molecular Devices) and filter #2. Responses were measured as peak increase in fluorescence minus basal (i.e. fluorescence without addition of L-glutamate). Kb was determined using the Cheng-Prusoff equation Kb=IC50/[1+(A/EC50)], where IC50 is the concentration of the antagonist producing 50% inhibition, A is the concentration of the agonist against which the IC50 is being determined (at EC80) and EC50 is the concentration of the agonist producing 50% […].
row,Kb [nM],Compound
1,140,"CC(C)c1nccn1-c1cc(C(=O)NC2(C)CCS(=O)(=O)C2)cc(-c2ccc(F)cc2)n1 (racemic) [Example 38, (RS)-2-(4-Fluorophenyl)-N-(3-methyl-1,1-dioxothiolan-3-yl)-6-(2-propan-2-ylimidazol-1-yl)-pyridine-4-carboxamide]"
2,140,"CC(C)c1nccn1-c1cc(C(=O)NC(C)(C)C)cc(-c2ccc(Cl)cc2)n1 [Example 1, N-tert-Butyl-2-(4-chlorophenyl)-6-(2-propan-2-yl-imidazol-1-yl)-pyridine-4-carboxamide]"
3,460,"CC(C)c1nccn1-c1cc(C(=O)NC(C)(C)C)cc(-c2ccc(C(F)(F)F)cc2)n1 [Example 3, N-tert-Butyl-2-(2-propan-2-yl-imidazol-1-yl)-6-[4-(trifluoromethyl)-phenyl]-pyridine-4-carboxamide]"
4,160,"CC(C)(C)NC(=O)c1cc(-c2ccc(F)cc2)nc(-n2ccnc2C2CC2)c1 [Example 4, N-tert-Butyl-2-(2-cyclopropyl-imidazol-1-yl)-6-(4-fluorophenyl)-pyridine-4-carboxamide]"
5,120,"CC(C)(C)NC(=O)c1cc(-c2ccc(Cl)cc2)nc(-n2ccnc2C2CC2)c1 [Example 5, N-tert-Butyl-2-(4-chlorophenyl)-6-(2-cyclopropyl-imidazol-1-yl)-pyridine-4-carboxamide]"
6,1000,"CC(C)(C)NC(=O)c1cc(-c2ccc(F)cc2)nc(-n2ccnc2)c1 [Example 6, N-tert-Butyl-2-(4-fluorophenyl)-6-imidazol-1-yl-pyridine-4-carboxamide]"
7,430,"Cc1nccn1-c1cc(C(=O)NC(C)(C)C)cc(-c2ccc(F)cc2)n1 [Example 7, N-tert-Butyl-2-(4-fluorophenyl)-6-(2-methyl-imidazol-1-yl)-pyridine-4-carboxamide]"
8,210,"CCc1nccn1-c1cc(C(=O)NC(C)(C)C)cc(-c2ccc(F)cc2)n1 [Example 8, N-tert-Butyl-2-(2-ethyl-imidazol-1-yl)-6-(4-fluorophenyl)-pyridine-4-carboxamide]"
9,600,"CC(C)(C)NC(=O)c1cc(-c2ccc(Cl)cc2)nc(-n2ccnc2)c1 [Example 9, N-tert-Butyl-2-(4-chlorophenyl)-6-imidazol-1-yl-pyridine-4-carboxamide]"
10,300,"Cc1nccn1-c1cc(C(=O)NC(C)(C)C)cc(-c2ccc(Cl)cc2)n1 [Example 10, N-tert-Butyl-2-(4-chlorophenyl)-6-(2-methyl-imidazol-1-yl)-pyridine-4-carboxamide]"
11,250,"CCc1nccn1-c1cc(C(=O)NC(C)(C)C)cc(-c2ccc(Cl)cc2)n1 [Example 11, N-tert-Butyl-2-(4-chlorophenyl)-6-(2-ethyl-imidazol-1-yl)-pyridine-4-carboxamide]"
12,63,"CC(C)(C)NC(=O)c1cc(-c2ccc(Cl)cc2)nc(-n2ccnc2C(C)(C)C)c1 [Example 12, N-tert-Butyl-2-(2-tert-butyl-imidazol-1-yl)-6-(4-chlorophenyl)-pyridine-4-carboxamide]"
13,58,"CC(C)(C)NC(=O)c1cc(-c2ccc(F)cc2)nc(-n2ccnc2C(C)(C)C)c1 [Example 13, N-tert-Butyl-2-(2-tert-butyl-imidazol-1-yl)-6-(4-fluorophenyl)-pyridine-4-carboxamide]"
14,150,"CC(C)c1nccn1-c1cc(C(=O)NC(C)(C)C2CC2)cc(-c2ccc(Cl)cc2)n1 [Example 15, 2-(4-Chlorophenyl)-N-(2-cyclopropylpropan-2-yl)-6-(2-propan-2-yl-imidazol-1-yl)-pyridine-4-carboxamide]"
15,300,"CC(C)(NC(=O)c1cc(-c2ccc(Cl)cc2)nc(-n2ccnc2C2CC2)c1)C1CC1 [Example 16, 2-(4-Chlorophenyl)-6-(2-cyclopropyl-imidazol-1-yl)-N-(2-cyclopropyl-propan-2-yl)-pyridine-4-carboxamide]"
16,280,"CC(C)(C)c1nccn1-c1cc(C(=O)NC(C)(C)C2CC2)cc(-c2ccc(Cl)cc2)n1 [Example 17, 2-(2-tert-Butylimidazol-1-yl)-6-(4-chlorophenyl)-N-(2-cyclopropyl-propan-2-yl)-pyridine-4-carboxamide]"
17,100,"CC(C)(C)NC(=O)c1cc(-c2ccc(F)cc2)nc(-n2ccnc2C(C)(C)O)c1 [Example 18, N-tert-Butyl-2-(4-fluorophenyl)-6-[2-(2-hydroxypropan-2-yl)-imidazol-1-yl]-pyridine-4-carboxamide]"
18,180,"CC(C)(C)NC(=O)c1cc(-c2ccc(C(F)(F)F)cc2)nc(-n2ccnc2C(C)(C)C)c1 [Example 19, N-tert-Butyl-2-(2-tert-butylimidazol-1-yl)-6-[4-(trifluoromethyl)-phenyl]-pyridine-4-carboxamide]"
19,290,"CC(C)(C)NC(=O)c1cc(-c2ccc(C(F)(F)F)cc2)nc(-n2ccnc2C2CC2)c1 [Example 20, N-tert-Butyl-2-(2-cyclopropyl-imidazol-1-yl)-6-[4-(trifluoromethyl)-phenyl]-pyridine-4-carboxamide]"
20,650,"Cc1nccn1-c1cc(C(=O)NC(C)(C)C)cc(-c2ccc(C(F)(F)F)cc2)n1 [Example 21, N-tert-Butyl-2-(2-methyl-imidazol-1-yl)-6-[4-(trifluoromethyl)-phenyl]-pyridine-4-carboxamide]"
21,500,"CC(C)(C)NC(=O)c1cc(-c2ccc(Cl)cc2)nc(-n2ccnc2CO)c1 [Example 22, N-tert-Butyl-2-(4-chlorophenyl)-6-[2-(hydroxymethyl)-imidazol-1-yl]-pyridine-4-carboxamide]"
22,320,"CC(C)c1nccn1-c1cc(C(=O)NC(C)(C)C(F)(F)F)cc(-c2ccc(Cl)cc2)n1 [Example 23, 2-(4-Chlorophenyl)-6-(2-propan-2-yl-imidazol-1-yl)-N-(1,1,1-trifluoro-2-methylpropan-2-yl)-pyridine-4-carboxamide]"
23,510,"CC(C)(NC(=O)c1cc(-c2ccc(Cl)cc2)nc(-n2ccnc2C2CC2)c1)C(F)(F)F [Example 24, 2-(4-Chlorophenyl)-6-(2-cyclopropyl-imidazol-1-yl)-N-(1,1,1-trifluoro-2-methylpropan-2-yl)-pyridine-4-carboxamide]"
24,150,"Cc1cc(-c2cc(C(=O)NC(C)(C)C)cc(-n3ccnc3C(C)(C)C)n2)ccc1F [Example 29, N-tert-Butyl-2-(2-tert-butyl-imidazol-1-yl)-6-(4-fluoro-3-methyl-phenyl)-pyridine-4-carboxamide]"
25,190,"CC(C)c1nccn1-c1cc(C(=O)NC(C)(C)CO)cc(-c2ccc(Cl)cc2)n1 [Example 30, 2-(4-Chlorophenyl)-N-(1-hydroxy-2-methylpropan-2-yl)-6-(2-propan-2-yl-imidazol-1-yl)-pyridine-4-carboxamide]"
26,170,"CC(C)(C)NC(=O)c1cc(-c2ccc(Cl)cc2)nc(-n2ccnc2C(C)(C)O)c1 [Example 33, N-tert-Butyl-2-(4-chlorophenyl)-6-[2-(2-hydroxypropan-2-yl)-imidazol-1-yl]-pyridine-4-carboxamide]"
27,240,"CC(C)(C)NC(=O)c1cc(-c2ccc(C(F)(F)F)cc2)nc(-n2ccnc2C(C)(C)O)c1 [Example 34, N-tert-Butyl-2-[2-(2-hydroxypropan-2-yl)-imidazol-1-yl]-6-[4-(trifluoromethyl)-phenyl]-pyridine-4-carboxamide]"
28,150,"CC(C)(O)c1nccn1-c1cc(C(=O)NC(C)(C)C2CC2)cc(-c2ccc(Cl)cc2)n1 [Example 35, 2-(4-Chlorophenyl)-N-(2-cyclopropylpropan-2-yl)-6-[2-(2-hydroxypropan-2-yl)-imidazol-1-yl]-pyridine-4-carboxamide]"
29,78,"CC(C)(O)c1nccn1-c1cc(C(=O)NC(C)(C)C(F)(F)F)cc(-c2ccc(Cl)cc2)n1 [Example 36, 2-(4-Chlorophenyl)-6-[2-(2-hydroxypropan-2-yl)-imidazol-1-yl]-N-(1,1,1-trifluoro-2-methylpropan-2-yl)-pyridine-4-carboxamide]"
30,96,"CC(C)(C#N)NC(=O)c1cc(-c2ccc(Cl)cc2)nc(-n2ccnc2C(C)(C)C)c1 [Example 37, 2-(2-tert-Butylimidazol-1-yl)-6-(4-chlorophenyl)-N-(2-cyanopropan-2-yl)-pyridine-4-carboxamide]"
